Assay [1] is described as follows: DRUGMATRIX: Phorbol Ester radioligand binding (ligand: [3H] PDBu). The assay is classed as cell membranes, Mus musculus, ICR, Brain, Membrane. The following applies: Not Active = under 50% inhibition at 10 µM.
Assay [2] is described as follows: DRUGMATRIX: Glutamate, AMPA radioligand binding (ligand: [3H] AMPA). The assay is classed as cell membranes, Rattus norvegicus, Wistar, Cerebral cortex, Membrane. The conditions noted are these: Not Active = under 50% inhibition at 10 µM.
The target in assay [3] is T1, Caspase-1 (Homo sapiens, UniProt P29466).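 Note: Caspase-1 enzyme inhibition assay with a peptide substrate; in other assays of this panel Not Active means under 50% inhibition at 10 µM.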
T1 sequence (P29466 whole entry): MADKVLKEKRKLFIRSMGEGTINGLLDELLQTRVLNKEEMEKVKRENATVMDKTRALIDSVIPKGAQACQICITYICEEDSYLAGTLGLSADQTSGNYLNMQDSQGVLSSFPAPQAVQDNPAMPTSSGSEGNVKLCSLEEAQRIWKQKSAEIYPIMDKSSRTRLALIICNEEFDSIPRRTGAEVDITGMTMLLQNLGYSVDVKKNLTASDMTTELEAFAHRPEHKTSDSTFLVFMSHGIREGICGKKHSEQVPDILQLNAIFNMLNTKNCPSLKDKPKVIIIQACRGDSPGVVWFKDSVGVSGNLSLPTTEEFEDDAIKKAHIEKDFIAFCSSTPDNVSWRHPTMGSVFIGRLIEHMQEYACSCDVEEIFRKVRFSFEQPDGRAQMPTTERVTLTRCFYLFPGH
The arrangement: species or system Escherichia coli.

The target in assay [4] is Delta-type opioid receptor (Homo sapiens, UniProt P41143). The assay is classed as cell membranes, HEK293, Membrane. The conditions noted are these: hek293. Note: in other assays of this panel Not Active means under 50% inhibition at 10 µM.
Delta-type opioid receptor, sequence (P41143 whole entry): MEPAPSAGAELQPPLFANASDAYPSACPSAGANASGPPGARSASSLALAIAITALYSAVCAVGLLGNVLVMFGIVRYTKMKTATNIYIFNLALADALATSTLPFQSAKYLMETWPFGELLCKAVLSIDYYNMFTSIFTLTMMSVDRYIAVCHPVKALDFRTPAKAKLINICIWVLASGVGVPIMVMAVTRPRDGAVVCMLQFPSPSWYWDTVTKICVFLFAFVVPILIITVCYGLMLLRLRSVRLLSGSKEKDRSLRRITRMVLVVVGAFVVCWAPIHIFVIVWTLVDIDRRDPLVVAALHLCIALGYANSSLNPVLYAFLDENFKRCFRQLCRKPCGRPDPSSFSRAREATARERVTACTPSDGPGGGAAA
Assay [5] concerns the target T2, B2 bradykinin receptor (Homo sapiens, UniProt P30411). Note: in other assays of this panel Not Active means under 50% inhibition at 10 µM.
T2 sequence (P30411 whole entry): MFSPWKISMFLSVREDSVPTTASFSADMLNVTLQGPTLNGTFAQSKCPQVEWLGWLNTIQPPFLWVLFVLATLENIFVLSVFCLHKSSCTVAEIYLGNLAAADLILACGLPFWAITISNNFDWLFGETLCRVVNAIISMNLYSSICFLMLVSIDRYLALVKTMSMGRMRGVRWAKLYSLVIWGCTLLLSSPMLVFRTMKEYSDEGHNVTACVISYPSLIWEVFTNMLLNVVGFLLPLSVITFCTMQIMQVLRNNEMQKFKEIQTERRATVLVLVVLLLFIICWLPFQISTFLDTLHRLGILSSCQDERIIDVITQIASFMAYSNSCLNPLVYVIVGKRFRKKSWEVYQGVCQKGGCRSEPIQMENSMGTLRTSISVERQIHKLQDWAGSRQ
The assay is classed as cell membranes, Membrane. The conditions noted are these: chem-1.

The target in assay [6] is Receptor tyrosine-protein kinase erbB-2 (Homo sapiens, UniProt P04626). The assay is classed as cell-based. The following applies: insect cells.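 Note: inhibition of HER2 kinase enzyme activity, measured with Poly(Glu:Tyr) as the phosphorylation substrate; in other assays of this panel Not Active means under 50% inhibition at 10 µM.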
Receptor tyrosine-protein kinase erbB-2, sequence (P04626 whole entry): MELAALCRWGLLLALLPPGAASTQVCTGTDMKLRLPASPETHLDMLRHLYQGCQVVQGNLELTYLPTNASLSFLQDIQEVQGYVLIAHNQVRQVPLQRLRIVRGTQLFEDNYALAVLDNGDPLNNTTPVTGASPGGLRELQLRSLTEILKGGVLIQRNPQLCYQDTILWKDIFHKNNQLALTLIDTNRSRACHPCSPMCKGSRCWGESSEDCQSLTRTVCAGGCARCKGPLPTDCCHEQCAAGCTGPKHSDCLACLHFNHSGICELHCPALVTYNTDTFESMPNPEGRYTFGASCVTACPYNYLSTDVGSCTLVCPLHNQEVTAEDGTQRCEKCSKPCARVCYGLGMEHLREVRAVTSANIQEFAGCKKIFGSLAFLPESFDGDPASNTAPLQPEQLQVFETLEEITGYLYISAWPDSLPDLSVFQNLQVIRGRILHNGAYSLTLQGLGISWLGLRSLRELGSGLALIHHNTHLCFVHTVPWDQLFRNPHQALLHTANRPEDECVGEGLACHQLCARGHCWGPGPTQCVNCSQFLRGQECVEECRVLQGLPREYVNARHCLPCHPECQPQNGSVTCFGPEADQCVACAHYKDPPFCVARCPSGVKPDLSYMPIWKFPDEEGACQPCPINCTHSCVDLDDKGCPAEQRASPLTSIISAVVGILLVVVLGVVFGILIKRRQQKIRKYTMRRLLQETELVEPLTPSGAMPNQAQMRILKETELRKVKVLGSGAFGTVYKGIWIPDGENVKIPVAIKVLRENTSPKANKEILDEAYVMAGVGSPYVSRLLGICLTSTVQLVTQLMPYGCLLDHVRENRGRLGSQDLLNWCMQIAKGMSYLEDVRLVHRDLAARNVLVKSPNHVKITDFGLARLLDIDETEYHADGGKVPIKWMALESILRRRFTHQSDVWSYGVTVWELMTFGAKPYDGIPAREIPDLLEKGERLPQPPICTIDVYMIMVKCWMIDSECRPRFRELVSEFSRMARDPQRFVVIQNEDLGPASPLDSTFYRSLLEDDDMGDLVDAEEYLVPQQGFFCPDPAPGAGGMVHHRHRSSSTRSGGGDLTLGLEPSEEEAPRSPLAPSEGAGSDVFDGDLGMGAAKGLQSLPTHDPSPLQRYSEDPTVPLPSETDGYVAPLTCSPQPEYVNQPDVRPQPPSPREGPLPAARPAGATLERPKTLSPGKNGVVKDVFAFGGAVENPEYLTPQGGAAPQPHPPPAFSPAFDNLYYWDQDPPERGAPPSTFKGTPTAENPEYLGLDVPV
Assay [7] deals with T3, C-C chemokine receptor type 4 (Homo sapiens, UniProt P51679).
T3 sequence (P51679 whole entry): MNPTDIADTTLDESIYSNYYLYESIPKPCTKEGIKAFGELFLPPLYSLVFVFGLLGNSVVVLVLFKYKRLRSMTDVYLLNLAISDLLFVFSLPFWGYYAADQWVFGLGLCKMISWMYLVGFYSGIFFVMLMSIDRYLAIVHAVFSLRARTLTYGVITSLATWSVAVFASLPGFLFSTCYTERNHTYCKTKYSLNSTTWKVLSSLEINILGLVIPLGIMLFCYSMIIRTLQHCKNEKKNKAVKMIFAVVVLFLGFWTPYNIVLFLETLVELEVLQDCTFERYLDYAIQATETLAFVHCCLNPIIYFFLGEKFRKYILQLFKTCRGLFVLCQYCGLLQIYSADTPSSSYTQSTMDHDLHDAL
It counts as cell membranes, Chem-1, Membrane.

A short description of assay [8]: DRUGMATRIX: Potassium Channel [KATP] radioligand binding (ligand: [3H] Glyburide). The following applies: hit-t15; Not Active = under 50% inhibition at 10 µM. The assay is classed as cell membranes, Membrane.

For the compound `CC[C@H](C)[C@@H](CO[C@@H](Cc1ccccc1)C(=O)N[C@@H](CCS(C)(=O)=O)C(=O)OC(C)C)NC[C@@H](N)CS`, the IC50 result in assay [1], in assay [2], in assay [3], in assay [4], in assay [5] and in assay [6] was “Not Active” each time. Moreover, the IC50 entry in assay [7] (chem-1) and in assay [8] was “Not Active” in each case. The Ki result in assay [1], in assay [2] and in assay [8] was “Not Active” in each case.
`Nc1nc(N)c2nc(-c3ccccc3)c(N)nc2n1`: the IC50 – broadly, the concentration that gives 50% inhibition – was “Not Active” in assay [1]; “Not Active” in assay [2]; 3.66 µM in assay [3] (read-out: IC50); “Not Active” in assay [4]; “Not Active” in assay [5]; “Not Active” in assay [6]. For the same compound, the IC50 entry in assay [7] (chem-1) and in assay [8] was “Not Active” each time. For the same compound, the Ki entry in assay [1], in assay [2] and in assay [8] was “Not Active” in each case.
Take `CCN(CC)C(=S)SSC(=S)N(CC)CC`: the IC50 entry in assay [1], in assay [2], in assay [3], in assay [4], in assay [5] and in assay [6] was “Not Active” in each case. The IC50 was 8.4 µM in assay [7] (read-out: IC50) and “Not Active” in assay [8]. Moreover, the Ki (usually the equilibrium dissociation constant of an inhibitor or competing ligand from its target) in assay [1] was “Not Active”; in assay [2] it was “Not Active”; in assay [7] (read-out: Ki), 4.4 µM; in assay [8] it was “Not Active”.
In the case of `CN(C)CCC=C1c2ccccc2COc2ccccc21` [DOXEPIN], the IC50 result in assay [3], in assay [4], in assay [5], in assay [6] and in assay [7] (chem-1) was “Not Active” in each case.
Regarding `O=C(c1ccccc1)c1ccc2n1CCC2C(=O)O` (stereo not drawn) [KETOROLAC], the IC50 result in assay [1], in assay [2], in assay [3], in assay [4], in assay [5] and in assay [6] was “Not Active” throughout. Moreover, the IC50 entry in assay [7] (chem-1) and in assay [8] was “Not Active” in each case. The Ki entry in assay [1], in assay [2] and in assay [8] was “Not Active” in each case.
Turning to `CCOC(=O)C1=C(C)NC(C)=C(C(=O)OCC)C1c1ccccc1/C=C/C(=O)OC(C)(C)C` [LACIDIPINE], the IC50 entry in assay [1], in assay [2], in assay [3], in assay [4], in assay [5] and in assay [6] was “Not Active” each time. Moreover, the IC50 result in assay [7] (chem-1) and in assay [8] was “Not Active” throughout. Besides, the Ki result in assay [1], in assay [2] and in assay [8] was “Not Active” in each case.
Consider `CC(O)C(=O)O` (stereo not drawn) [LACTIC ACID], for which the concentration for half-maximal inhibition (IC50) entry in assay [1], in assay [2], in assay [3], in assay [4], in assay [5] and in assay [6] was “Not Active” in each case. Moreover, the IC50 result in assay [7] (chem-1) and in assay [8] was “Not Active” each time. Besides, the Ki entry in assay [1], in assay [2] and in assay [8] was “Not Active” throughout.
Take `CC(C)(C)NC[C@H](O)COc1cccc2c1CCCC2=O` [LEVOBUNOLOL]: the IC50 entry in assay [1], in assay [2], in assay [3], in assay [4], in assay [5] and in assay [6] was “Not Active” throughout. The IC50 entry in assay [7] (chem-1) and in assay [8] was “Not Active” each time. Further, the Ki result in assay [1], in assay [2] and in assay [8] was “Not Active” each time.
On to `CO[C@@H]1[C@@H](OC)[C@H](C)[C@@](O)(CC(=O)O)O[C@H]1[C@H](C)[C@H]1O[C@@]2(CC[C@@](C)([C@H]3CC[C@@](C)([C@@H]4O[C@@H]([C@H]5O[C@](C)(O)[C@H](C)C[C@@H]5C)C[C@@H]4O[C@@H]4C[C@H](OC)[C@@H](OC)[C@H](C)O4)O3)O2)C[C@H](O)[C@H]1C.N` [MADURAMICIN], for which the IC50 result in assay [1], in assay [2], in assay [3], in assay [4], in assay [5] and in assay [6] was “Not Active” throughout. The IC50 result in assay [7] (chem-1) and in assay [8] was “Not Active” in each case. Also, the Ki result in assay [1], in assay [2] and in assay [8] was “Not Active” in each case.
As to `OC[C@@H](O)[C@@H](O)[C@H](O)[C@H](O)CO` [MANNITOL], the IC50 entry in assay [1], in assay [2], in assay [3], in assay [4], in assay [5] and in assay [6] was “Not Active” each time. In addition, the IC50 result in assay [7] (chem-1) and in assay [8] was “Not Active” each time. The Ki entry in assay [1], in assay [2] and in assay [8] was “Not Active” throughout.
As for `CNCCCC12CCC(c3ccccc31)c1ccccc12` [MAPROTILINE], the IC50 result in assay [3], in assay [4], in assay [5], in assay [6] and in assay [7] (chem-1) was “Not Active” in each case.
Regarding `COC(=O)Nc1nc2ccc(C(=O)c3ccccc3)cc2[nH]1` [MEBENDAZOLE], the IC50 result in assay [1], in assay [2], in assay [3], in assay [4], in assay [5] and in assay [6] was “Not Active” throughout. The IC50 entry in assay [7] (chem-1) and in assay [8] was “Not Active” throughout. Also, the Ki result in assay [1], in assay [2] and in assay [8] was “Not Active” each time.
Turning to `Cc1ccc(Cl)c(Nc2ccccc2C(=O)O)c1Cl` [MECLOFENAMIC ACID], the IC50 result in assay [1], in assay [2], in assay [3], in assay [4], in assay [5] and in assay [6] was “Not Active” throughout. The IC50 entry in assay [7] (chem-1) and in assay [8] was “Not Active” in each case. Further, the inhibition constant Ki entry in assay [1], in assay [2] and in assay [8] was “Not Active” throughout.
Consider `CC(=O)O[C@]1(C(C)=O)CC[C@H]2[C@@H]3C[C@H](C)C4=CC(=O)CC[C@]4(C)[C@H]3CC[C@@]21C` [MEDROXYPROGESTERONE ACETATE], for which the half-maximal inhibitory concentration (IC50) result in assay [1], in assay [2], in assay [3], in assay [4], in assay [5] and in assay [6] was “Not Active” each time. Also, the IC50 entry in assay [7] (chem-1) and in assay [8] was “Not Active” throughout. Also, the Ki result in assay [1], in assay [2] and in assay [8] was “Not Active” in each case.
Take `O=C1CC[C@@]2(O)[C@H]3Cc4ccc(O)c5c4[C@@]2(CCN3CC2CC2)[C@H]1O5` [NALTREXONE]: the IC50 result in assay [1], in assay [2], in assay [3], in assay [5], in assay [6] and in assay [7] (chem-1) was “Not Active” throughout. Besides, the IC50 result in assay [8] is given as “Not Active”. Besides, the Ki entry in assay [1], in assay [2] and in assay [8] was “Not Active” each time.
For `Cc1cc2c(s1)Nc1ccccc1N=C2N1CCN(C)CC1` [OLANZAPINE], the IC50 result in assay [3], in assay [4], in assay [5], in assay [6] and in assay [7] (chem-1) was “Not Active” throughout.
